One data set relates to J774 macrophages. Put plainly: Cytotoxicity to J774 macrophages (Alamar Blue). Format: cell-based. The following applies: 72 h, read-out: CC50 (µM) JJ74. Here is the method: J774 macrophages were seeded into 96-well plates at a cell density of 1 × 10^4 cells/well in a DMEM medium supplemented with 10% fetal bovine serum (FBS; GIBCO) and 50 µg/mL of gentamicin (Life Technologies, Carlsbad, CA, USA) and incubated for 24 h at 37 °C and 5% CO2. After that time, each compound was added in six concentrations (50–1.56 µM), in triplicate, and incubated for 72 h. At the end of treatment, 20 µL/well of Alamar Blue (Invitrogen) was added to the plates for 4 h. […]
As a positive control, gentian violet was used at concentrations ranging from 0.04 to 10 µM. CC50 values were calculated using data from three independent experiments.
To determine the cytotoxicity concentration of 50% of J774 macrophages (CC50), we used non-linear regression. One-way analysis of variance and Newman–Keuls multiple comparison tests were employed by using Graph Pad Prism version 8.0.1 (Graph Pad Software; San Diego, CA, USA). Differences were considered significant when the values of p were < 0.05. The data are representative of at least two or three experiments.
A general note: The colour change of resazurin is a common sign of viable cells or microbes.

In another data set the test system is nitric oxide production. Kind of data set: Inhibition of nitric oxide (nitrite) production in J774 macrophages stimulated with LPS + IFN-γ (Griess). In kind it is cell-based. The note with it: 24 h incubation with compounds and LPS plus IFN-γ. Here is the method:
Immortalized J774 macrophages (2 × 10^5 cells/well) or peritoneal macrophages (2 × 10^5 cells/well) were incubated in 96-well plates in a DMEM medium supplemented with 10% FBS and 50 µg/mL of gentamicin, in triplicate, stimulated or not with LPS (500 ng/mL) and IFN-γ (5 ng/mL), and treated or not with different concentrations of the evaluated ferrocenyl-N-acyl hydrazones. The cells were incubated for 4 or 24 h at 37 °C and 5% CO2. Cell-free supernatants were collected after 4 h (for TNFα measurement) and 24 h (for IL-1β, TNFα, and nitrite quantifications), and kept at −80 °C until use.
The dosage of cytokines IFN-γ, IL-1β, IL-2, IL-4, and TNFα was performed from the supernatant of peritoneal macrophages or splenocytes were determined by enzyme-linked immunosorbent assay (ELISA), using DuoSet kits from R&D Systems, according to the manufacturer’s instructions. Nitric oxide production was estimated in macrophage culture supernatants harvested at 24 h using the Griess method for nitrite quantification.
For orientation: The Griess reaction detects nitrite, a stable product of nitric oxide.

Usually CC50 stands for the concentration that lowers cell viability or growth by half. Consider `O=C(N/N=C/[c-]1cccc1)c1cc(O)c(O)c(O)c1.[Fe+2].c1cc[cH-]c1` [SintMed151, (E)-N′-(Ferrocenylmethylidene)-3,4,5-trihydroxybenzohydrazide], for which the 50% cytotoxic concentration (CC50) in the data set with J774 macrophages was > 50 µM. Besides, the “Inhibition of NO (%) Production at 40 μM” value with nitric oxide production is 25.2 (±2.1) %.

Consider `COc1cc(C(=O)N/N=C/[c-]2cccc2)cc(OC)c1OC.[Fe+2].c1cc[cH-]c1` [SintMed152, (E)-N′-(Ferrocenylmethylidene)-3,4,5-trimethoxybenzohydrazide], for which, in the data set on J774 macrophages, the CC50 is > 50 µM. In the data set on nitric oxide production, the “Inhibition of NO (%) Production at 40 μM” value was 55.5 (±1.7) %.

Consider `O=C(N/N=C/[c-]1cccc1)c1ccco1.[Fe+2].c1cc[cH-]c1` [SintMed143, (E)-N′-(Ferrocenylmethylidene)furan-2-ylcarbohydrazide], for which the CC50 with J774 macrophages was > 50 µM. For the same compound, the “Inhibition of NO (%) Production at 40 μM” value with nitric oxide production is listed as 49.2 (±1.9) %.

As to `O=C(N/N=C/[c-]1cccc1)c1ccccc1Cl.[Fe+2].c1cc[cH-]c1` [SintMed142, (E)-N′-(Ferrocenylmethylidene)-2-chlorobenzohydrazide], the CC50 in the data set on J774 macrophages was > 50 µM. The “Inhibition of NO (%) Production at 40 μM” value in the data set with nitric oxide production is listed as 49.3 (±0.8) %.

For `O=C(N/N=C/[c-]1cccc1)c1ccc(C(F)(F)F)cc1.[Fe+2].c1cc[cH-]c1` [SintMed147, (E)-N′-(Ferrocenylmethylidene)-4-(trifluoromethyl)benzohydrazide], the CC50 in the data set on J774 macrophages was > 50 µM. Also, the “Inhibition of NO (%) Production at 40 μM” value in the data set on nitric oxide production was 59.9 (±0.3) %.

On to `O=C(N/N=C/[c-]1cccc1)c1cccc(Cl)c1.[Fe+2].c1cc[cH-]c1` [SintMed154, (E)-N′-(Ferrocenylmethylidene)-3-chlorobenzohydrazide], for which the CC50 in the data set on J774 macrophages is > 50 µM. Also, the “Inhibition of NO (%) Production at 40 μM” value in the data set on nitric oxide production is 45.2 (±2.1) %.

For the compound `O=C(N/N=C/[c-]1cccc1)c1ccccc1.[Fe+2].c1cc[cH-]c1` [SintMed141, (E)-N′-(Ferrocenylmethylidene)benzohydrazide], the 50% cytotoxic concentration (CC50) in the data set on J774 macrophages is > 50 µM. Moreover, in the data set on nitric oxide production, the “Inhibition of NO (%) Production at 40 μM” value is reported as 19.7 (±3.0) %.

`Cc1ccccc1C(=O)N/N=C/[c-]1cccc1.[Fe+2].c1cc[cH-]c1` [SintMed148, (E)-N′-(Ferrocenylmethylidene)-2-methylbenzohydrazide]: in the data set with J774 macrophages, the CC50 was > 50 µM. The “Inhibition of NO (%) Production at 40 μM” value in the data set with nitric oxide production is 56.6 (±2.1) %.

As for `COc1cc(C(=O)N/N=C/[c-]2cccc2)cc(OC)c1OC.[Fe+2].c1cc[cH-]c1` [SintMed153, (E)-N′-(Ferrocenylmethylidene)-3,4,5-trimethoxybenzohydrazide], in the data set with J774 macrophages, the CC50 was > 50 µM. In addition, in the data set on nitric oxide production, the “Inhibition of NO (%) Production at 40 μM” value is 43.7 (±3.3) %.

In the case of `CC(C)(C)c1cc(C(=O)N/N=C/[c-]2cccc2)cc(C(C)(C)C)c1O.[Fe+2].c1cc[cH-]c1` [SintMed146, (E)-N′-(Ferrocenylmethylidene)-3,5-tert-butyl-4-hydroxybenzohydrazide], the CC50 with J774 macrophages was > 50 µM. Further, the “Inhibition of NO (%) Production at 40 μM” value in the data set on nitric oxide production is 14.4 (±2.2) %.

`COc1ccc(C(=O)N/N=C/[c-]2cccc2)c(OC)c1.[Fe+2].c1cc[cH-]c1` [SintMed156, (E)-N′-(Ferrocenylmethylidene)-2,4-dimethoxybenzohydrazide]: the CC50 with J774 macrophages is > 50 µM. Also, the “Inhibition of NO (%) Production at 40 μM” value in the data set on nitric oxide production is 46.7 (±3.0) %.

Turning to `O=C(N/N=C/[c-]1cccc1)c1ccc2ccccc2n1.[Fe+2].c1cc[cH-]c1` [SintMed145, (E)-N′-(Ferrocenylmethylidene)quinolin-2-ylcarbohydrazide], the CC50 in the data set on J774 macrophages is > 50 µM. Also, in the data set on nitric oxide production, the “Inhibition of NO (%) Production at 40 μM” value is on record as 49.6 (±2.6) %.

With `O=C(N/N=C/[c-]1cccc1)c1cccc2ccccc12.[Fe+2].c1cc[cH-]c1` [SintMed155, (E)-N′-(Ferrocenylmethylidene)-1-naphtylcarbohydrazide], the CC50 in the data set on J774 macrophages is > 50 µM. For the same compound, in the data set with nitric oxide production, the “Inhibition of NO (%) Production at 40 μM” value is 35.6 (±0.7) %.

Turning to `N#Cc1ccc(C(=O)N/N=C/[c-]2cccc2)cc1.[Fe+2].c1cc[cH-]c1` [SintMed144, (E)-N′-(Ferrocenylmethylidene)-4-cyanobenzohydrazide], the CC50 in the data set on J774 macrophages was > 50 µM. For the same compound, the “Inhibition of NO (%) Production at 40 μM” value in the data set with nitric oxide production is reported as 55.2 (±0.6) %.

For the origin of these results see article PMC9737981, “Molecular Hybridization Strategy on the Design, Synthesis, and Structural Characterization of Ferrocene-N-acyl Hydrazones as Immunomodulatory Agents” (Molecules, 2022).
